From ChEMBL document CHEMBL5291721, “A preclinical secondary pharmacology resource illuminates target-adverse drug reaction associations of marketed drugs” (Nat Commun, 2023)

What was measured:
[1] = target: T1, Alpha-1A adrenergic receptor (Homo sapiens, UniProt P35348); assay type: functional, cell-based
T1 sequence (P35348 whole entry): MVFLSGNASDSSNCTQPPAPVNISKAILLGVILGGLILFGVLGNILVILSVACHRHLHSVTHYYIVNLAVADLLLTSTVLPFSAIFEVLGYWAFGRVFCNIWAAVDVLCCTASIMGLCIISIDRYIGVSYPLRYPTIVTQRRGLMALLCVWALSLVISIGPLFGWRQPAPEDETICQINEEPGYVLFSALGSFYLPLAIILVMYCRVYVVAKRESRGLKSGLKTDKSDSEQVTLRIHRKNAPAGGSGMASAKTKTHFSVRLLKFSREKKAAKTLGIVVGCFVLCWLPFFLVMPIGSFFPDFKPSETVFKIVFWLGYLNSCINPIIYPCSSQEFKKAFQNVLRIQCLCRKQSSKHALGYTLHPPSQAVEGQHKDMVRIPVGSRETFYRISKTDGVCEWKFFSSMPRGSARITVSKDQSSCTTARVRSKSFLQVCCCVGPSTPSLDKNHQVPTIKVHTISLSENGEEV

[2] = target: T2, Alpha-2C adrenergic receptor (Homo sapiens, UniProt P18825); assay type: functional
T2 sequence (P18825 whole entry): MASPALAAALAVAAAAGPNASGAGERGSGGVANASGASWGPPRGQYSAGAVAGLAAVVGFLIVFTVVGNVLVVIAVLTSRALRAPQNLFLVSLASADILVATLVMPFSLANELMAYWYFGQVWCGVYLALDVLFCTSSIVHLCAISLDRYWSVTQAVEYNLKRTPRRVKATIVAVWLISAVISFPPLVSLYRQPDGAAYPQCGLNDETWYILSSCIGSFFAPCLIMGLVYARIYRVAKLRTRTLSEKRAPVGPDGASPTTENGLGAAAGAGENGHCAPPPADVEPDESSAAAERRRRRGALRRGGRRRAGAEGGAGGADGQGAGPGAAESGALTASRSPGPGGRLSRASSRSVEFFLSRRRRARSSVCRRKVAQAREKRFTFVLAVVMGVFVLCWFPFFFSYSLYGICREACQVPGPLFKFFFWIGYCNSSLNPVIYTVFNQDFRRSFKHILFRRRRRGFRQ

[3] = target: Melanocortin receptor 3 (Homo sapiens, UniProt P41968)
Sequence of Melanocortin receptor 3 (P41968 whole entry): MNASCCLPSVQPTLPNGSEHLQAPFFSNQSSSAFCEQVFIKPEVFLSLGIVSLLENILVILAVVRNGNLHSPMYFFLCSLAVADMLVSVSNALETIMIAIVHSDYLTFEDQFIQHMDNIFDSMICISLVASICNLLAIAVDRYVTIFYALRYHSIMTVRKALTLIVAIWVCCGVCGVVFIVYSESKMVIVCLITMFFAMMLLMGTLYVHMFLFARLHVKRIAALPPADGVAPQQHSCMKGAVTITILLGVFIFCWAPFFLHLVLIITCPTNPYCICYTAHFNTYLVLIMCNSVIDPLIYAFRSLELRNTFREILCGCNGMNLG

[4] = target: Sodium-dependent noradrenaline transporter (Homo sapiens, UniProt P23975)
Sequence of Sodium-dependent noradrenaline transporter (P23975 whole entry): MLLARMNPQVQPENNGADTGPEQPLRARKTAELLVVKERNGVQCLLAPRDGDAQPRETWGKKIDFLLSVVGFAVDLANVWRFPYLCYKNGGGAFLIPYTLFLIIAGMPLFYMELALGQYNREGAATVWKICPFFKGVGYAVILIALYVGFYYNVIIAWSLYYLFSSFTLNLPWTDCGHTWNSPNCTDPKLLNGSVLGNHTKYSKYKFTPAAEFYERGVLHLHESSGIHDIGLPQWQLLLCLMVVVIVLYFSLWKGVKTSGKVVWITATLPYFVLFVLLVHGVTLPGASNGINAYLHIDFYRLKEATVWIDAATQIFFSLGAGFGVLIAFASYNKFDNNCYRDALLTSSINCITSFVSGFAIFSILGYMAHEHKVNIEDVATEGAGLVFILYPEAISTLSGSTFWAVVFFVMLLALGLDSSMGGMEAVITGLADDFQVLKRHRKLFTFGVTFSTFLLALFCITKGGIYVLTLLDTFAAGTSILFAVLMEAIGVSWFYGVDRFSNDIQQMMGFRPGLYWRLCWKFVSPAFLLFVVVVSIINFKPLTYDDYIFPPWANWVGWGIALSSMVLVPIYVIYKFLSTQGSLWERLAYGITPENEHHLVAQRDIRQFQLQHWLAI

[5] = target: T1, Alpha-1A adrenergic receptor; assay type: functional, cell-based; remark: listed apart in the source
[6] = target: Bile salt export pump (Homo sapiens, UniProt O95342); assay type: functional
Sequence of Bile salt export pump (O95342 whole entry): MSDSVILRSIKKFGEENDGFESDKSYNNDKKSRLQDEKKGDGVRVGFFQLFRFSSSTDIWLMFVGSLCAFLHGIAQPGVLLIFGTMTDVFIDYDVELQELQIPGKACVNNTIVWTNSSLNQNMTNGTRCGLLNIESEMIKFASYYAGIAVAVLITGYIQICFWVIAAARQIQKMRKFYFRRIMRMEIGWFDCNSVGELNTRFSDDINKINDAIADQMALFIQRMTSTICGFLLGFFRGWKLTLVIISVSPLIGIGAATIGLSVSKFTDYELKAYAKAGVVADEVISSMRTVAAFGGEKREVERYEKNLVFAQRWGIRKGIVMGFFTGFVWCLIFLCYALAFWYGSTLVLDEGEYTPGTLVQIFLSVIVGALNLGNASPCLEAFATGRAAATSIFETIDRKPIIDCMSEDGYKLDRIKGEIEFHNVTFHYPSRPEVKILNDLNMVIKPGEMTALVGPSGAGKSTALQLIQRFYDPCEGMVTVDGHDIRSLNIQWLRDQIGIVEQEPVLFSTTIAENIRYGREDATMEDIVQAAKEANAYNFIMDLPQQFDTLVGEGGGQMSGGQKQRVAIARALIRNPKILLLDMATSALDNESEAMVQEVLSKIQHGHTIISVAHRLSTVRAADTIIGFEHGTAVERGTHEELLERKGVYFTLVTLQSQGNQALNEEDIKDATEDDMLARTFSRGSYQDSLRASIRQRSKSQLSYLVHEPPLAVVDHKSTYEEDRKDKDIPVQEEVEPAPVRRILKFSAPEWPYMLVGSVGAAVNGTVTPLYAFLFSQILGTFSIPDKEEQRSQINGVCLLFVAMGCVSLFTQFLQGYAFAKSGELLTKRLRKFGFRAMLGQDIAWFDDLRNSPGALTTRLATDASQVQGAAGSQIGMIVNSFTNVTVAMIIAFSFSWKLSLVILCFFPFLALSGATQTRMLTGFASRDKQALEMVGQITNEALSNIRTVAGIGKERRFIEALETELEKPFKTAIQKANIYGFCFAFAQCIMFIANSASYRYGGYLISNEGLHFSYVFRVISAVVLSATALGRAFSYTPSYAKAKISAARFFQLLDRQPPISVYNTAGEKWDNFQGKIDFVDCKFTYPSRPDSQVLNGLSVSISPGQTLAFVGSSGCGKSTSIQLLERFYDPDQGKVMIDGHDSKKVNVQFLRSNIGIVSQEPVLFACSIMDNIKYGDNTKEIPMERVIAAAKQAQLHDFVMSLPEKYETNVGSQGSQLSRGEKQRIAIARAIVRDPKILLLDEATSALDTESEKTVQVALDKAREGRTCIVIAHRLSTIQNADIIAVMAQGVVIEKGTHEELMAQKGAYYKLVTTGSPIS

[7] = target: T3, 5-hydroxytryptamine receptor 2C (Homo sapiens, UniProt P28335)
T3 sequence (P28335 whole entry): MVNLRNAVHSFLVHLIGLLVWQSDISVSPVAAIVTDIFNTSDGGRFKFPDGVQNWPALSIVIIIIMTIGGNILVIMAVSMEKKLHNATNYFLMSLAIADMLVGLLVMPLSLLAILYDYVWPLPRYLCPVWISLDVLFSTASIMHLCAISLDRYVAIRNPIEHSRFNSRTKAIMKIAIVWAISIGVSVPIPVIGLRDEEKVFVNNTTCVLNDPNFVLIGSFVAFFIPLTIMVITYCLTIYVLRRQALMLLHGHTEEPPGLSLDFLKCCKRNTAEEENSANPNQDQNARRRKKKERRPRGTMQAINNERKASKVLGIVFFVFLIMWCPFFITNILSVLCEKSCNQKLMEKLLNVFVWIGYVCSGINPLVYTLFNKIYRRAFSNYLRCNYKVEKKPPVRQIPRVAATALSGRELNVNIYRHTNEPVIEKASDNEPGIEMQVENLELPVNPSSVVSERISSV

[8] = target: T4, 5-hydroxytryptamine receptor 3A (Homo sapiens, UniProt P46098); assay type: functional
T4 sequence (P46098 whole entry): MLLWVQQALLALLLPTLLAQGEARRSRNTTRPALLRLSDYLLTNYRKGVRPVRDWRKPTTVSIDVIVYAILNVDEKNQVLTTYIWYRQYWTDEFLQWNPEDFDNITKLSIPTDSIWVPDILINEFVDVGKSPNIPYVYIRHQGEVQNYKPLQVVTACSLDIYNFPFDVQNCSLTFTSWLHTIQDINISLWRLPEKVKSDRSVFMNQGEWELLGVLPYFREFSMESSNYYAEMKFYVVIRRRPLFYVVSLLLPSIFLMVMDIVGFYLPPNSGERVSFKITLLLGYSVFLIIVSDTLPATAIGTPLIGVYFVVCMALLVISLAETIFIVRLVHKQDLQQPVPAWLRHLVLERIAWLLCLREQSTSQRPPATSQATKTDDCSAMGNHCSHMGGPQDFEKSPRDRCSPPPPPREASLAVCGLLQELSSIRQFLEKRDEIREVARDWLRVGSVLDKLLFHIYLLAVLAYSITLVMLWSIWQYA

[9] = target: Gamma-aminobutyric acid receptor subunit alpha-1 (Rattus norvegicus, UniProt P62813); assay type: functional
Sequence of Gamma-aminobutyric acid receptor subunit alpha-1 (P62813 whole entry): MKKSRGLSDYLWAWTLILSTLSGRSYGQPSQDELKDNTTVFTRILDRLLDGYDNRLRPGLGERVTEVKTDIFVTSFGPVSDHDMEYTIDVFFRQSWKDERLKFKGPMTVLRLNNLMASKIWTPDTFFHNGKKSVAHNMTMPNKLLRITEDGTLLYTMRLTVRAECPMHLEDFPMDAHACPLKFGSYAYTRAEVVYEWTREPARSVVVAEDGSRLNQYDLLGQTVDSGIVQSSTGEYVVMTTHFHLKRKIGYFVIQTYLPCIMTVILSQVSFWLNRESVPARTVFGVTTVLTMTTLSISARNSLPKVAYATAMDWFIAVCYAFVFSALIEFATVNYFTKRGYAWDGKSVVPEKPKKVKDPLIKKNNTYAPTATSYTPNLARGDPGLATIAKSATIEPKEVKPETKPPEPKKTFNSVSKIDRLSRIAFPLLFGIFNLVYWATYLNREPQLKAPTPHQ

[10] = target: Mu-type opioid receptor (Homo sapiens, UniProt P35372)
Sequence of Mu-type opioid receptor (P35372 whole entry): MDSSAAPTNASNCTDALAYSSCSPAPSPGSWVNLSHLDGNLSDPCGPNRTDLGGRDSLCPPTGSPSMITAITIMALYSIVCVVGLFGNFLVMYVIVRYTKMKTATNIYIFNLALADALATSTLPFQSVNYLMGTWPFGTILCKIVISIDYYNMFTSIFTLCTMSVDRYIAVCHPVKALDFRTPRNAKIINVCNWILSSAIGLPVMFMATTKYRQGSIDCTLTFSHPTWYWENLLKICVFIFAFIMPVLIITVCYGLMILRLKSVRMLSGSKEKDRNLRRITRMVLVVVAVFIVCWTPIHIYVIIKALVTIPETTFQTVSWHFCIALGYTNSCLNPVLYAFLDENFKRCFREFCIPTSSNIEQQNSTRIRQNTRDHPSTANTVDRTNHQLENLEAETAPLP
Further: assay procedure not described here.

SMILES	AC50 [5] [µM]	AC50 [6] [µM]	also measured
Cc1cc(C2CCCCC2)n(O)c(=O)c1 [CICLOPIROX]	–	–	AC50 [1]: > 30 µM; AC50 [2]: > 30 µM; AC50 [3]: > 30 µM; AC50 [4]: > 30 µM
CC(=O)NO [ACETOHYDROXAMIC ACID]	> 30	> 300	–
CC(C)[C@@H]1CC[C@@H](C)C[C@H]1O [LEVOMENTHOL]	> 30	–	–
C[C@H]1O[C@@H](O[C@H]2CC[C@@]3(C)[C@H](CC[C@@H]4[C@@H]3C[C@@H](O)[C@]3(C)[C@@H](C5=CC(=O)OC5)CC[C@]43O)C2)C[C@H](O)[C@@H]1O[C@H]1C[C@H](O)[C@H](O[C@H]2C[C@H](O)[C@H](O[C@@H]3O[C@H](CO)[C@@H](O)[C@H](O)[C@H]3O)[C@@H](C)O2)[C@@H](C)O1 [DESLANOSIDE]	> 30	–	–
Cc1ccsc1C(=CCCN1CCC[C@@H](C(=O)O)C1)c1sccc1C [TIAGABINE]	> 30	–	–
O=C(NNCS(=O)(=O)O)c1ccncc1 [METHANIAZIDE]	> 30	–	–
C=N[C@@H](C(=O)N[C@@H]1C(=O)N2[C@@H]1SC(C)(C)[C@@H]2C(=O)O)c1ccccc1 [METAMPICILLIN]	> 30	–	–
Cc1cc(=O)[nH]c(=S)[nH]1 [METHYLTHIOURACIL]	> 30	–	–
CC[C@]12CCCN3CCc4c(n(c5ccccc45)[C@@](O)(C(=O)OC)C1)[C@@H]32 [VINCAMINE]	> 30	–	–
C[N+]1(C)CCCC(OC(=O)C(O)(c2ccccc2)c2ccccc2)C1 (configuration not stated) [MEPENZOLATE]	> 30	> 300	–
CCCCC(CC)CN1CN(CC(CC)CCCC)CC(C)(N)C1 (configuration not stated) [HEXETIDINE]	> 30	–	–
C[C@]12C=CC(=O)C=C1CC[C@H]1[C@@H]3C[C@@H](O)[C@](O)(C(=O)CO)[C@@]3(C)C[C@H](O)[C@@]12F [TRIAMCINOLONE]	> 30	–	–
C[N+](C)(C)CCOC(=O)CCC(=O)OCC[N+](C)(C)C [SUXAMETHONIUM]	–	> 300	–
C=CC(=O)Nc1cccc(Oc2nc(Nc3ccc(N4CCN(C)CC4)cc3)nc3ccsc23)c1 [OLMUTINIB]	4.91	13	–
COc1c2occc2c(OC)c2c(=O)cc(C)oc12 [KHELLIN]	> 30	–	–
C=C(C)CNc1ccc(C(C)C(=O)O)cc1 (configuration not stated) [ALMINOPROFEN]	> 30	–	–
COc1ccccc1OC1(C)OC(=O)c2ccccc2O1 (configuration not stated) [GUAIMESAL]	> 30	–	AC50 [3]: > 30 µM; AC50 [4]: > 30 µM
O=C(O)P(=O)(O)O [FOSCARNET]	> 30	–	–
CC(C(=O)O)c1ccc2oc(-c3ccc(Cl)cc3)nc2c1 (configuration not stated) [BENOXAPROFEN]	–	120	AC50 [1]: > 30 µM; AC50 [2]: > 30 µM; AC50 [7]: > 30 µM; AC50 [3]: > 30 µM; AC50 [8]: > 30 µM; AC50 [4]: > 30 µM; AC50 [9]: > 30 µM
C[N+](C)(CCCCCC[N+](C)(C)C1c2ccccc2-c2ccccc21)C1c2ccccc2-c2ccccc21 [HEXAFLUORENIUM]	3.09	–	–
CCCCc1oc2ccc(NS(C)(=O)=O)cc2c1C(=O)c1ccc(OCCCN(CCCC)CCCC)cc1 [DRONEDARONE]	5.92	–	–
CC(C(=O)O)c1cccc(Oc2ccccc2)c1 (configuration not stated) [FENOPROFEN]	> 30	> 300	–

SMILES	AC50 [5] [µM]	AC50 [6] [µM]	also measured
CC(C)C(=O)Oc1ccc(CO)cc1[C@H](CCN(C(C)C)C(C)C)c1ccccc1 [FESOTERODINE]	> 30	–	–
CC[C@H]1OC(=O)[C@H](C)[C@@H](O[C@H]2C[C@@](C)(OC)[C@@H](O)[C@H](C)O2)[C@H](C)[C@@H](O[C@@H]2O[C@H](C)C[C@H](N(C)C)[C@H]2O)[C@](C)(O)C[C@@H](C)[C@@H]2N[C@@H](COCCOC)O[C@H]([C@H]2C)[C@]1(C)O [DIRITHROMYCIN]	> 30	–	–
CNC(=C[N+](=O)[O-])NCCSCc1csc(CN(C)C)n1 [NIZATIDINE]	–	> 300	AC50 [2]: > 10 µM; AC50 [7]: > 30 µM; AC50 [3]: > 10 µM; AC50 [8]: > 30 µM; AC50 [10]: > 30 µM; AC50 [4]: > 10 µM; AC50 [9]: > 10 µM
C[C@H]1CN(C[C@H](Cc2ccccc2)C(=O)NCC(=O)O)CC[C@@]1(C)c1cccc(O)c1 [ALVIMOPAN]	> 30	> 300	–
CCNC(=O)/C=C(C)/C=C/C=C(C)/C=C/c1c(C)cc(OC)c(C)c1C [MOTRETINIDE]	> 30	–	–
Cc1ccccc1C(=O)Nc1ccc(C(=O)N2CCCC(O)c3cc(Cl)ccc32)c(C)c1 (configuration not stated) [TOLVAPTAN]	> 30	7.87	–
CCCCC1C(=O)N(c2ccccc2)N(c2ccc(O)cc2)C1=O (configuration not stated) [OXYPHENBUTAZONE ANHYDROUS]	> 30	–	–
CCCc1cc(=O)[nH]c(=S)[nH]1 [PROPYLTHIOURACIL]	–	> 300	AC50 [2]: > 10 µM; AC50 [7]: > 30 µM; AC50 [3]: > 10 µM; AC50 [8]: > 30 µM; AC50 [10]: > 30 µM; AC50 [4]: > 10 µM; AC50 [9]: > 10 µM
O=C(O)c1ccccc1 [BENZOIC ACID]	> 30	260	–
COC(=O)[C@@H](N)Cc1ccc(O)c(O)c1 [MELEVODOPA]	> 30	–	–
CC1(C)O[C@@H]2C[C@H]3[C@@H]4C[C@H](F)C5=CC(=O)C=C[C@]5(C)[C@@]4(F)[C@@H](O)C[C@]3(C)[C@]2(C(=O)CO)O1 [FLUOCINOLONE ACETONIDE]	> 30	–	–
CN(C)c1ccc(O)c2c1C[C@H]1C[C@H]3[C@H](N(C)C)C(O)=C(C(N)=O)C(=O)[C@@]3(O)C(O)=C1C2=O [MINOCYCLINE]	> 30	83	–
Cc1ccc(C(=O)c2ccc(CC(=O)O)n2C)cc1 [TOLMETIN]	> 30	> 300	–
Nc1c(CC(=O)O)cccc1C(=O)c1ccc(Br)cc1 [BROMFENAC]	> 30	88	–
Cc1cc(=O)oc2cc(O)ccc12 [HYMECROMONE]	> 30	> 300	–
C[Se]CC[C@H](N)C(=O)O [SELENOMETHIONINE]	> 30	–	–
Nc1cccc2c1C(=O)N(C1CCC(=O)NC1=O)C2=O (configuration not stated) [POMALIDOMIDE]	> 30	–	–
CCC1=C[C@@H]2CN(C1)Cc1c([nH]c3ccccc13)[C@@](C(=O)OC)(c1cc3c(cc1OC)N(C)[C@H]1[C@@](O)(C(=O)OC)[C@H](OC(C)=O)[C@]4(CC)C=CCN5CC[C@]31[C@@H]54)C2 [VINORELBINE]	> 30	–	–
O=C(O)CN(CCN(CC(=O)O)CC(=O)O)CCN(CC(=O)O)CC(=O)O [PENTETIC ACID]	1.28	–	–
CC[C@@H]1C[C@]1(NC(=O)[C@@H]1C[C@@H]2CN1C(=O)[C@H](C(C)(C)C)NC(=O)OCC(C)(C)CCCCc1cccc3c1CN(C3)C(=O)O2)C(=O)NS(=O)(=O)C1CC1	> 3	–	–
CC(C)C[C@H](NC(=O)[C@@H](O)[C@H](N)Cc1ccccc1)C(=O)O [UBENIMEX]	–	–	AC50 [1]: > 30 µM; AC50 [2]: > 30 µM; AC50 [7]: > 30 µM; AC50 [3]: > 30 µM; AC50 [8]: > 30 µM; AC50 [4]: > 30 µM; AC50 [9]: > 30 µM
COc1ccc2[nH]c([S+]([O-])Cc3ncc(C)c(OC)c3C)nc2c1 (configuration not stated) [OMEPRAZOLE]	> 30	–	–
